Laboratory results published in ChEMBL document CHEMBL4033695, “Synthesis and biological evaluation of novel 5-aryl-4-(5-nitrofuran-2-yl)-pyrimidines as potential anti-bacterial agents” (Bioorg Med Chem Lett, 2017).
Values after ≈ are worked out from the molar mass of the structure shown.

Key:
[1] = Toxicity in mouse administered as single oral dose measured for 14 days; details: in vivo
Escherichia coli = assay: Antibacterial activity against Escherichia coli ATCC 8739 by two-fold serial dilution method; type: functional
Neisseria gonorrhoeae [2] = assay: Potency index, ratio of spectinomycin MIC to compound MIC for Neisseria gonorrhoeae NCTC 12700/ATCC 49226; type: functional
Shigella flexneri = assay: Antibacterial activity against Shigella flexneri RCPM 1a8516 by two-fold serial dilution method; type: functional
Neisseria gonorrhoeae [3] = assay: Antibacterial activity against Neisseria gonorrhoeae NCTC 8375/ATCC 19424 by two-fold serial dilution method; type: functional
Klebsiella pneumoniae = assay: Antibacterial activity against Klebsiella pneumoniae ATCC 13883 by two-fold serial dilution method; type: functional
Citrobacter braakii = assay: Antibacterial activity against Citrobacter braakii ATCC 101/57 by two-fold serial dilution method; type: functional
[4] = Potency index, ratio of compound LD50 to isoniazid LD50 for mouse; type: ADME; details: in vivo
Neisseria gonorrhoeae [5] = assay: Antibacterial activity against gonorrhea patient derived azithromycin resistant-Neisseria gonorrhoeae by two-fold serial dilution method; type: functional
Neisseria gonorrhoeae [6] = assay: Antibacterial activity against Neisseria gonorrhoeae NCTC 12700/ATCC 49226 by two-fold serial dilution method; type: functional
[7] = test system: Mycobacterium tuberculosis; assay: Antitubercular activity against Mycobacterium tuberculosis H37Rv after […] by micro broth dilution method; type: functional
Neisseria gonorrhoeae [8] = assay: Potency index, ratio of spectinomycin MIC to compound MIC for Neisseria gonorrhoeae NCTC 8375/ATCC 19424; type: functional
Proteus vulgaris = assay: Antibacterial activity against Proteus vulgaris RCPM 160125 (222) by two-fold serial dilution method; type: functional
[9] = Cytotoxicity against mouse MacCoy B cells after 24 hrs by p-Nitro-Blue tetrazolium chloride dye based colorometric method; type: cell-based
Staphylococcus aureus [10] = assay: Potency index, ratio of spectinomycin MIC to compound MIC for Staphylococcus aureus ATCC 25923; type: functional
Pseudomonas aeruginosa = assay: Antibacterial activity against Pseudomonas aeruginosa ATCC 9027 by two-fold serial dilution method; type: functional
Serratia marcescens = assay: Antibacterial activity against Serratia marcescens ATCC 13880 by two-fold serial dilution method; type: functional
Staphylococcus aureus [11] = assay: Antibacterial activity against Staphylococcus aureus ATCC 25923 by two-fold serial dilution method; type: functional
[12] = Toxicity in orally dosed mouse; type: organism-based; details: in vivo, po

| SMILES | LD50 at 336 h [1] [mg/kg] | MIC (Escherichia coli) [mg/L] | Ratio (Neisseria gonorrhoeae [2]) | MIC (Shigella flexneri) [mg/L] | MIC (Neisseria gonorrhoeae [3]) [mg/L] | MIC (Klebsiella pneumoniae) [mg/L] | MIC (Citrobacter braakii) [mg/L] | selectivity ratio [4] | MIC (Neisseria gonorrhoeae [5]) [mg/L] | MIC (Neisseria gonorrhoeae [6]) [mg/L] | MIC [7] [mg/L] | Ratio (Neisseria gonorrhoeae [8]) | MIC (Proteus vulgaris) [mg/L] | IC50 [9] [µM] | Ratio (Staphylococcus aureus [10]) | MIC (Pseudomonas aeruginosa) [mg/L] | MIC (Serratia marcescens) [mg/L] | MIC (Staphylococcus aureus [11]) [mg/L] | LD50 [12] [mg/kg] |
| --- | --- | --- | --- | --- | --- | --- | --- | --- | --- | --- | --- | --- | --- | --- | --- | --- | --- | --- | --- |
| O=[N+]([O-])c1ccc(-c2ncncc2Br)o1 | 300 | > 250 | <=16 | 7.8 (≈ 28.9 µM) | 7.8 (≈ 28.9 µM) | > 250 | > 250 | 2 | 3.9 (≈ 14.4 µM) | 0.97 (≈ 3.59 µM) | 1.5 (≈ 5.55 µM) | <=16 | > 250 | 167 | 4 | > 250 | > 250 | 7.8 (≈ 28.9 µM) |  |
| O=[N+]([O-])c1ccc(-c2ncncc2-c2ccc(F)cc2F)o1 |  | > 500 | <=16 | > 250 | 31.2 (≈ 103 µM) | > 500 | > 500 |  | 31.2 (≈ 103 µM) | 3.9 (≈ 12.9 µM) | 12.5 (≈ 41.2 µM) | <=16 | > 250 | 66.8 | 4 | > 500 | > 500 | 31.2 (≈ 103 µM) |  |
| O=[N+]([O-])c1ccc(-c2ncncc2-c2ccc(C(F)(F)F)cc2C(F)(F)F)o1 |  | > 500 | <=16 | > 250 | 1000 (≈ 2480 µM) | > 500 | > 500 |  | 1000 (≈ 2480 µM) | 3.9 (≈ 9.67 µM) | 12.5 (≈ 31 µM) | <=16 | > 250 | 45.5 | 4 | > 500 | > 500 | 15.6 (≈ 38.7 µM) |  |
| O=[N+]([O-])c1ccc(-c2ncncc2-c2ccccc2)o1 | 450 | > 250 | <=16 | > 250 | 3.9 (≈ 14.6 µM) | > 250 | > 250 | 3 | 7.8 (≈ 29.2 µM) | 1.95 (≈ 7.3 µM) | 3.1 (≈ 11.6 µM) | <=16 | > 250 | 52.5 | 4 | > 250 | > 250 | 15.6 (≈ 58.4 µM) |  |
| O=[N+]([O-])c1ccc(-c2ncncc2-c2ccc(F)cc2)o1 |  |  | <=16 |  | 15.6 (≈ 54.7 µM) |  |  |  | 31.2 (≈ 110 µM) | 31.2 (≈ 110 µM) | 12.5 (≈ 43.8 µM) | <=16 |  | 69.8 | 4 |  |  | 62.5 (≈ 219 µM) |  |
| O=[N+]([O-])c1ccc(-c2ncncc2-c2cc(F)cc(F)c2)o1 |  |  |  |  | > 1000 |  |  |  |  |  | 12.5 (≈ 41.2 µM) |  |  |  |  |  |  |  |  |
| O=[N+]([O-])c1ccc(-c2ncncc2-c2ccccc2C(F)(F)F)o1 |  | > 250 | <=16 | 62.5 (≈ 186 µM) | 15.6 (≈ 46.5 µM) | > 250 | > 250 |  | 15.6 (≈ 46.5 µM) | 3.9 (≈ 11.6 µM) | 12.5 (≈ 37.3 µM) | <=16 | > 250 | 74.4 | 4 | > 250 | > 250 | 15.6 (≈ 46.5 µM) |  |
| O=[N+]([O-])c1ccc(-c2ncncc2-c2ccccc2F)o1 |  | > 250 | <=16 | > 250 | 7.8 (≈ 27.3 µM) | > 250 | > 250 |  | 7.8 (≈ 27.3 µM) | 1.95 (≈ 6.84 µM) | 12.5 (≈ 43.8 µM) | <=16 | > 250 | 67.5 | 4 | > 250 | > 250 | 15.6 (≈ 54.7 µM) |  |
| O=[N+]([O-])c1ccc(-c2ncncc2-c2cc(C(F)(F)F)cc(C(F)(F)F)c2)o1 |  |  |  |  | > 1000 |  |  |  |  |  | 12.5 (≈ 31 µM) |  |  |  |  |  |  |  |  |
| O=[N+]([O-])c1ccc(-c2ncncc2-c2ccc(C(F)(F)F)cc2)o1 |  |  |  |  | 500 (≈ 1490 µM) |  |  |  |  |  | 12.5 (≈ 37.3 µM) |  |  |  |  |  |  |  |  |
| O=[N+]([O-])c1ccc(-c2ncncc2-c2cccc(F)c2)o1 |  | > 250 | <=16 | > 250 | 3.9 (≈ 13.7 µM) | > 250 | > 250 |  | 15.6 (≈ 54.7 µM) | 0.97 (≈ 3.4 µM) | 12.5 (≈ 43.8 µM) | <=16 | > 250 | 100 | 4 | > 250 | > 250 | > 250 |  |
| O=[N+]([O-])c1ccc(-c2ncncc2-c2cccc(C(F)(F)F)c2)o1 |  |  |  |  | 125 (≈ 373 µM) |  |  |  |  |  | 12.5 (≈ 37.3 µM) |  |  |  |  |  |  |  |  |
| NNC(=O)c1ccncc1 [ISONIAZID] |  |  |  |  |  |  |  |  |  |  | 0.1 (≈ 0.729 µM) |  |  |  |  |  |  |  |  |
| NC(=O)c1cnccn1 [PYRAZINAMIDE] |  |  |  |  |  |  |  |  |  |  | 12.5 (≈ 102 µM) |  |  |  |  |  |  |  |  |
| CN[C@@H]1[C@H](O)[C@H](NC)[C@H]2O[C@@]3(O)C(=O)C[C@@H](C)O[C@H]3O[C@@H]2[C@H]1O [SPECTINOMYCIN] |  | 15.6 (≈ 46.9 µM) |  | 7.8 (≈ 23.5 µM) | 15.6 (≈ 46.9 µM) | 15.6 (≈ 46.9 µM) | 31.2 (≈ 94 µM) |  | 15.6 (≈ 46.9 µM) | 15.6 (≈ 46.9 µM) |  |  | 125 (≈ 376 µM) | > 752 |  | 250 (≈ 752 µM) | 15.6 (≈ 46.9 µM) | 31.2 (≈ 94 µM) | > 10000 |
